The subject of one test is saphenous vein. The test is classed as cell-based. Details: Diameter of the conduit, 0 hrs. / Diameter of the conduit, 2 hrs. / Diameter of the conduit, 12 hrs. / Diameter of the conduit, 24 hrs. / Diameter of the conduit, 48 hrs. / Diameter of the conduit, 72 hrs.: unit not given here.
The subject of another test is radial artery. In kind it is cell-based. Details: Diameter of the conduit, 0 hrs. / Diameter of the conduit, 2 hrs. / Diameter of the conduit, 12 hrs. / Diameter of the conduit, 24 hrs. / Diameter of the conduit, 72 hrs.: unit not given here.
Test [1] deals with internal mammary artery (IMA). The test is classed as cell-based. The arrangement: Diameter of the conduit, 0 hrs. / Diameter of the conduit, 2 hrs. / Diameter of the conduit, 12 hrs. / Diameter of the conduit, 24 hrs. / Diameter of the conduit, 48 hrs. / Diameter of the conduit, 72 hrs.: unit not given here.
For test [2] the following is noted: topical vasodilators used to overcome vasospasm; cited from earlier work.
Where [3] appears, read: Vein, NTG 0.5 micromol/L, verapamil 100 nanomol/L.
Where [4] appears, read: Radial, NTG 0.5 micromol/L, verapamil 100 nanomol/L.
Setting [5] is: IMA, NTG 0.5 micromol/L, verapamil 100 nanomol/L.

Where “and” joins values, the source holds several entries; their conditions need not be identical. Equal values may be shown once. Read-outs that look alike come from different tables or passages of the source.

For the compound `O=[N+]([O-])OCC(CO[N+](=O)[O-])O[N+](=O)[O-]` [NTG, nitroglycerine], in the test with saphenous vein, the “Aug % (maximum increase in diameter at a given time point compared to baseline)” value was 66% and 67% and 51%; the “Diameter of the conduit, 0 hrs.” value is 2.4 and 3.7 and 2.7; the “Diameter of the conduit, 2 hrs.” value is 4.0 and 6.2; the “Diameter of the conduit, 12 hrs.” value is 3.8 and 6.0 and 4.1. Also, in the test with saphenous vein, the “Diameter of the conduit, 24 hrs.” value was 4.1 and 5.9 and 3.8; the “Diameter of the conduit, 48 hrs.” value was 3.7 and 6.1 and 3.9; the “Diameter of the conduit, 72 hrs.” value is 3.7 and 6.2. In the test on radial artery, the “Aug % (maximum increase in diameter at a given time point compared to baseline)” value was 52% and 44% and 42%; the “Diameter of the conduit, 0 hrs.” value was 2.5 and 2.3 and 2.6; the “Diameter of the conduit, 2 hrs.” value was 2.9 and 3.0 and 3.3; the “Diameter of the conduit, 12 hrs.” value is 3.6 and 3.0 and 3.5. In the test with radial artery, the “Diameter of the conduit, 24 hrs.” value was 3.8 and 2.9 and 3.7; the “Diameter of the conduit, 48 hrs.” value is listed as 3.7; the “Diameter of the conduit, 72 hrs.” value was 3.8 and 3.3 and 3.7. Also, in test [1], the “Aug % (maximum increase in diameter at a given time point compared to baseline)” value is 73% and 50% and 47%; the “Diameter of the conduit, 0 hrs.” value is 1.5 and 2.2 and 2.3; the “Diameter of the conduit, 2 hrs.” value is 2.1 and 2.4 and 2.7; the “Diameter of the conduit, 12 hrs.” value was 2.3 and 2.5 and 2.8. Also, in test [1], the “Diameter of the conduit, 24 hrs.” value was 2.3 and 2.6; the “Diameter of the conduit, 48 hrs.” value is 2.4 and 2.8 and 2.9; the “Diameter of the conduit, 72 hrs.” value is 2.9 and 3.1 and 3.4.
Take `COc1ccc(Cc2nccc3cc(OC)c(OC)cc23)cc1OC` [papaverine]: in test [2], the “increase in free flow” value is 70%.
With `COc1ccc(CCN(C)CCCC(C#N)(c2ccc(OC)c(OC)c2)C(C)C)cc1OC` (stereo not shown) [verapamil], in the test on saphenous vein (setting [3]), the “Diameter of the conduit, 2 hrs.” value was 5.1 and 5.2 and 5.5; the “Diameter of the conduit, 12 hrs.” value is 4.8 and 5.7 and 5.3; the “Diameter of the conduit, 24 hrs.” value is 5.0 and 5.8 and 5.2; the “Diameter of the conduit, 48 hrs.” value is 4.7 and 5.7 and 5.5. Further, in the test on saphenous vein (setting [3]), the “Diameter of the conduit, 72 hrs.” value is 4.8 and 5.8 and 5.4; the “Aug % (maximum increase in diameter at a given time point compared to baseline)” value is 70% and 65% and 66%. Also, in the test on saphenous vein (Vein, baseline 0 hrs, Kreb's solution 37° C., NTG 0.5 micromol/L, verapamil 100 nanomol/L), the “Diameter of the conduit, 0 hrs.” value was 3.0 and 3.5 and 3.3. In the test with radial artery (setting [4]), the “Diameter of the conduit, 2 hrs.” value was 3.5 and 3.9 and 4.1; the “Diameter of the conduit, 12 hrs.” value was 3.5 and 3.9; the “Diameter of the conduit, 24 hrs.” value was 3.8; the “Diameter of the conduit, 48 hrs.” value was 3.6 and 3.8. Besides, in the test with radial artery (setting [4]), the “Diameter of the conduit, 72 hrs.” value was 3.6 and 3.9; the “Aug % (maximum increase in diameter at a given time point compared to baseline)” value was 57% and 62% and 52%. For the same compound, the “Diameter of the conduit, 0 hrs.” value with radial artery (Radial, baseline 0 hrs, Kreb's solution 37° C., NTG 0.5 micromol/L, verapamil 100 nanomol/L) was 2.3 and 2.4 and 2.7. Moreover, in test [1] (setting [5]), the “Diameter of the conduit, 2 hrs.” value was 2.4 and 2.1 and 2.7; the “Diameter of the conduit, 12 hrs.” value was 2.6 and 2.4 and 2.8; the “Diameter of the conduit, 24 hrs.” value is 2.5 and 2.3 and 2.9; the “Diameter of the conduit, 48 hrs.” value was 3.0 and 2.5. In test [1] (setting [5]), the “Diameter of the conduit, 72 hrs.” value was 2.9 and 2.7 and 3.1; the “Aug % (maximum increase in diameter at a given time point compared to baseline)” value was 61% and 59% and 64%. The “Diameter of the conduit, 0 hrs.” value in test [1] (IMA, baseline 0 hrs, Kreb's solution 37° C., NTG 0.5 micromol/L, verapamil 100 nanomol/L) is 1.8 and 1.7 and 1.9.

The values above are taken from US20020168396A1 (priority 2001, published 2002).
